# Reference: patent US8895550B2, “Triazolopyridine compounds as PIM kinase inhibitors” (Array BioPharma Inc., priority 2008, dated 2014)
# What was measured:
# Format in all cases: biochemical
# PIM-1 = PIM-1 (Homo sapiens, UniProt P11309); assay: Enzyme PIM-1 Assay (radiometric [33P]ATP incorporation into PIM2tide, filter plate); details: 35 μM ATP, 7.5 μM PIM2tide, 0.25 nM PIM-1, 60 min at 22° C.; high dose 10 μM
# Method: (§1) The assay for the determination of PIM-1 activity is based on the incorporation of [^33P]PO4 from [γ-^33P]ATP into PIM2tide substrate and capture of the radiolabeled peptide onto a Whatman P81 (phosphocellulose) filter plate. The amount of radiolabeled product is then measured by liquid scintillation counting. The final buffer conditions were as follows: 20 mM K^+MOPS, pH 7.4, 10 mM MgCl2, 0.005% Tween-20, 1 mM DTT. Assay mixtures contained 35 μM [γ-^33P]ATP (20 μCi/mL), 7.5 μM PIM2tide and 0.25 nM PIM-1 in a total volume of 50 μL. Incubations were carried out for 60 min at 22° C. and quenched with 75 μL, of 200 mM H3PO4, filtered through a Whatman P81 plate and washed (1×200 μL and 5×100 μL) with 200 mM H3PO4. Fifty μL of liquid scintillation cocktail were then added per well, and the plate was counted for 30 s/well using a TopCount NXT.
# (§2) Compounds were prepared at 50× the final concentration in DMSO by conducting 3-fold serial dilutions from a 500-μM intermediate dilution to give a 10-point dosing curve having a high dose of 10 μM. One-μL aliquots of these were then transferred to the assay mixtures above to give a final concentration of DMSO of 2%. A standard or reference compound was typically included on each assay plate to validate that plate. For each plate, percent of control (POC) values were calculated for each well. IC50's were estimated from the POC's using a standard 4-parameter logistic model. The IC50 is defined as the concentration of inhibitor at which the POC equals 50 for the fitted curve.
# recombinant rat PIM-3 = recombinant rat PIM-3 (Rattus norvegicus, UniProt O70444); assay: PIM-3 Assay (as Example A with recombinant rat PIM-3); details: 30 μM ATP, 3.75 μM PIM2tide, 0.5 nM PIM-3; high dose 10 μM
# Method: as §1, §2
# Assay was performed as described in Example A, using 30 μM [γ-^33P]ATP (20 μCi/mL), 3.75 μM PIM2tide and 0.5 nM recombinant rat PIM-3 in place of PIM-1.
# [1] = target: T1, GST-tagged recombinant full-length human Pim-2 (Homo sapiens, UniProt Q9P1W9); assay: PIM-2 Assay (as Example A with GST-tagged recombinant full-length human Pim-2); details: 4 μM ATP, 1.0 μM PIM2tide, 1.5 nM Pim-2; high dose 10 μM
# T1 construct: GST-tagged recombinant full-length human Pim-2; GST
# T1 sequence (Q9P1W9 whole entry): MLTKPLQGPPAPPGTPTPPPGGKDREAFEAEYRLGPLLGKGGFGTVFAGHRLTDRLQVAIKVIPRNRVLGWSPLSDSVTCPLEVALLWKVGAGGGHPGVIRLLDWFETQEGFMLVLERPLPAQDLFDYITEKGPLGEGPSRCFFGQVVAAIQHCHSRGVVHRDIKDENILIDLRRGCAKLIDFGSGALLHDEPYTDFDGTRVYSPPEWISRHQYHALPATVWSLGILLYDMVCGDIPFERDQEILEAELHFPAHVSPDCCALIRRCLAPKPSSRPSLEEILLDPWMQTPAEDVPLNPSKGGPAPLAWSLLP
# Method: as §1, §2
# Assay was performed as described in Example A, using 4 μM [γ-^33P]ATP (20 μCi/mL), 1.0 μM PIM2tide and 1.5 nM GST-tagged recombinant full-length human Pim-2 in place of PIM-1.
# Sequence of PIM-1 (P11309 whole entry, species assumed): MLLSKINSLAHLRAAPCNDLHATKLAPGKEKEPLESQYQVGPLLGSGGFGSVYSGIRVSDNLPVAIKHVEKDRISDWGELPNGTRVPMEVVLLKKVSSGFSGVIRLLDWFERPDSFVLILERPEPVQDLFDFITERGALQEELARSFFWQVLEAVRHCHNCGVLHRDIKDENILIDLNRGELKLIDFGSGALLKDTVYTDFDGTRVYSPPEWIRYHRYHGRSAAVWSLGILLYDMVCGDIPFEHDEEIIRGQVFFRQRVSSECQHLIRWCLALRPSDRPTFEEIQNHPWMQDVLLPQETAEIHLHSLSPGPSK
Structure (SMILES),IC50 (PIM-1) [nM],IC50 (recombinant rat PIM-3) [nM],IC50 [1] [nM]
"COCCOc1ccn2c(-c3ccc4cccc(N5CCNCC5)c4n3)nnc2c1 [Example 1, 2-(7-(2-Methoxyethoxy)-[1,2,4]triazolo[4,3-a]pyridin-3-yl)-8-(piperazin-1-yl)quinoline]",255,554,≥ 10000
"COc1ccn2c(-c3ccc4cccc(N5CCNCC5)c4n3)nnc2c1 [Example 2, 2-(7-Methoxy-[1,2,4]triazolo[4,3-a]pyridin-3-yl)-8-(piperazin-1-yl)quinoline]",179,,≥ 10000
"c1cc(N2CCNCC2)c2nc(-c3nnc4ccccn34)ccc2c1 [Example 6, 2-([1,2,4]Triazolo[4,3-a]pyridin-3-yl)-8-(piperazin-1-yl)quinoline]",31,105,2980
"C[C@@H]1CN(c2cccc3ccc(-c4nnc5ccccn45)nc23)C[C@H](C)N1 [Example 8, 2-([1,2,4]Triazolo[4,3-a]pyridin-3-yl)-8-((cis)-3,5-dimethylpiperazin-1-yl)quinoline]",54,189,≥ 10000
"NCC1CCN(c2cccc3ccc(-c4nnc5ccccn45)nc23)CC1 [Example 10, (1-(2-([1,2,4]Triazolo[4,3-a]pyridin-3-yl)quinolin-8-yl)piperidin-4-yl)methanamine]",3,13,224
"CCNCc1ccn2c(-c3ccc4cccc(N5CCC(CN)CC5)c4n3)nnc2c1 [Example 12, N-((3-(8-(4-(aminomethyl)piperidin-1-yl)quinolin-2-yl)-[1,2,4]triazolo[4,3-a]pyridin-7-yl)methyl)ethanamine]",3,4,92
"NCc1ccn2c(-c3ccc4cccc(N5CCC(CN)CC5)c4n3)nnc2c1 [Example 13, (1-(2-(7-(Aminomethyl)-[1,2,4]triazolo[4,3-a]pyridin-3-yl)quinolin-8-yl)piperidin-4-yl)methanamine]",2,4,29
"NCC1CCN(c2cccc3ccc(-c4nnc5cc(C(O)CO)ccn45)nc23)CC1 (stereo not drawn) [Example 14, 1-(3-(8-(4-(Aminomethyl)piperidin-1-yl)quinolin-2-yl)-[1,2,4]triazolo[4,3-a]pyridin-7-yl)ethane-1,2-diol]",4,20,509
"OCC1CCCN(c2cccc3ccc(-c4nnc5ccccn45)nc23)C1 (stereo not drawn) [Example 15, (1-(2-([1,2,4]Triazolo[4,3-a]pyridin-3-yl)quinolin-8-yl)piperidin-3-yl)methanol]",15,,2080
"NCC1CCN(c2cc(F)cc3ccc(-c4nnc5ccccn45)nc23)CC1 [Example 16, (1-(2-([1,2,4]triazolo[4,3-a]pyridin-3-yl)-6-fluoroquinolin-8-yl)piperidin-4-yl)methanamine]",3,10,185
"NCC1CCN(c2ccc(F)c3ccc(-c4nnc5ccccn45)nc23)CC1 [Example 17, (1-(2-([1,2,4]triazolo[4,3-a]pyridin-3-yl)-5-fluoroquinolin-8-yl)piperidin-4-yl)methanamine]",77,51,1960
"NCC1CCN(c2cc(Cl)cc3ccc(-c4nnc5ccccn45)nc23)CC1 [Example 18, (1-(2-([1,2,4]Triazolo[4,3-a]pyridin-3-yl)-6-chloroquinolin-8-yl)piperidin-4-yl)methanamine]",32,25,736
"CC1CCCN(c2cccc3ccc(-c4nnc5ccccn45)nc23)C1 (stereo not drawn) [Example 19, 2-([1,2,4]triazolo[4,3-a]pyridin-3-yl)-8-(3-methylpiperidin-1-yl)quinoline]",18,,1800
"N[C@H]1CCCN(c2cccc3ccc(-c4nnc5ccccn45)nc23)C1 [Example 22, (S)-1-(2-([1,2,4]triazolo[4,3-a]pyridin-3-yl)quinolin-8-yl)piperidin-3-amine]",270,,3100
"Cc1nc(CN2CCN(c3cccc4ccc(-c5nnc6ccccn56)nc34)CC2)cs1 [Example 24, 4-((4-(2-([1,2,4]triazolo[4,3-a]pyridin-3-yl)quinolin-8-yl)piperazin-1-yl)methyl)-2-methylthiazole]",150,,≥ 10000
"CC1CCCN(c2c(Br)ccc3ccc(-c4nnc5ccccn45)nc23)C1 (stereo not drawn) [Example 25, 2-([1,2,4]triazolo[4,3-a]pyridin-3-yl)-7-bromo-8-(3-methylpiperidin-1-yl)quinoline]",128,,3020
"CC1(N)CCN(c2cccc3ccc(-c4nnc5ccccn45)nc23)CC1 [Example 26, 1-(2-([1,2,4]triazolopyridin-3-yl)quinolin-8-yl)-4-methylpiperidin-4-amine]",21,62,613

# Next, values leading:
IC50 (PIM-1) [nM],IC50 (recombinant rat PIM-3) [nM],IC50 [1] [nM],Structure (SMILES)
34,38,570,"N[C@@H]1CCN(c2cccc3ccc(-c4nnc5ccccn45)nc23)C[C@@H]1F (relative stereo) [Example 27, (cis)-1-(2-([1,2,4]triazolo[4,3-a]pyridin-3-yl)quinolin-8-yl)-3-fluoropiperidin-4-amine]"
24,60,2310,"COc1ccn2c(-c3ccc4cccc(N5CCC(N)CC5)c4n3)nnc2c1 [Example 3, 1-(2-(7-Methoxy-[1,2,4]triazolo[4,3-a]pyridin-3-yl)quinolin-8-yl)piperidin-4-amine]"
2790,,≥ 10000,"COc1ccn2c(-c3ccc4cccc(N5CCOCC5)c4n3)nnc2c1 [Example 4, 4-(2-(7-Methoxy-[1,2,4]triazolo[4,3-a]pyridin-3-yl)quinolin-8-yl)morpholine]"
24,121,2600,"c1cc(N2CCCCC2)c2nc(-c3nnc4ccccn34)ccc2c1 [Example 5, 2-([1,2,4]Triazolo[4,3-a]pyridin-3-yl)-8-(piperidin-1-yl)quinoline]"
17,105,3590,"C[C@@H]1CN(c2cccc3ccc(-c4nnc5ccccn45)nc23)CCN1 [Example 7, (R)-2-([1,2,4]Triazolo[4,3-a]pyridin-3-yl)-8-(3-methylpiperazin-1-yl)quinoline]"
11,24,543,"NC1CCN(c2cccc3ccc(-c4nnc5ccccn45)nc23)CC1 [Example 9, 1-(2-([1,2,4]Triazolo[4,3-a]pyridin-3-yl)quinolin-8-yl)piperidin-4-amine]"
84,217,2600,"NCC1CCN(c2cccc3ccc(-c4nnc5cc(CO)ccn45)nc23)CC1 [Example 11, (3-(8-(4-(Aminomethyl)piperidin-1-yl)quinolin-2-yl)-[1,2,4]triazolo[4,3-a]pyridin-7-yl)methanol]"
48,,2380,"OC1CCCN(c2cccc3ccc(-c4nnc5ccccn45)nc23)C1 (stereo not drawn) [Example 20, 1-(2-([1,2,4]triazolo[4,3-a]pyridin-3-yl)quinolin-8-yl)piperidin-3-ol]"
7,,142,"N[C@@H]1CCCN(c2cccc3ccc(-c4nnc5ccccn45)nc23)C1 [Example 21, (R)-1-(2-([1,2,4]triazolo[4,3-a]pyridin-3-yl)quinolin-8-yl)piperidin-3-amine]"
22,62,647,"CC1(C)CN(c2cccc3ccc(-c4nnc5ccccn45)nc23)CCN1 [Example 23, 2-([1,2,4]triazolo[4,3-a]pyridin-3-yl)-8-(3,3-dimethylpiperazin-1-yl)quinoline]"
